Assay results taken from publication PMC3977054, “Design, Synthesis and Biological Evaluation of 5-Oxo-1,4,5,6,7,8 Hexahydroquinoline Derivatives as Selective Cyclooxygenase-2 Inhibitors” (Iranian Journal of Pharmaceutical Research : IJPR, 2014).

Columns and labels:
COX-1 = molecular target: T1, COX-1 (Ovis aries, UniProt P05979); experiment: biochemical; conditions: ovine COX-1/COX-2 assay kit; mean of two determinations, deviation < 10% of the mean
T1 construct: purchased Cayman chemical, MI, USA
T1 sequence (P05979 25-600): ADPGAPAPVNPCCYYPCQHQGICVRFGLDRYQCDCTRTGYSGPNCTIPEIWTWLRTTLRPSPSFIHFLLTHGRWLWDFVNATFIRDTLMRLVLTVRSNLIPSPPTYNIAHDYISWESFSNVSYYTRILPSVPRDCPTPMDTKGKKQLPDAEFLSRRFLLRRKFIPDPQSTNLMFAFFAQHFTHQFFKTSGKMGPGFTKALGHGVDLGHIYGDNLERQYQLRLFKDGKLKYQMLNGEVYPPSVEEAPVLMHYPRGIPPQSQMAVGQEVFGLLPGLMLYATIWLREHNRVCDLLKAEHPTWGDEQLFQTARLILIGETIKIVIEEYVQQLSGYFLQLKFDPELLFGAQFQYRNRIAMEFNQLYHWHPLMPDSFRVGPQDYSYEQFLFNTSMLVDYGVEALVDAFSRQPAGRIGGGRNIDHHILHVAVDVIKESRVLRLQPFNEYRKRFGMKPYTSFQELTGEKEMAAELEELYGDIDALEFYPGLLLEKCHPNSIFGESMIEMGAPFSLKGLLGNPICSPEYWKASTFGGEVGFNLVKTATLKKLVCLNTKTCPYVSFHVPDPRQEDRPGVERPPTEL
Method: (§1) In-vitro cyclooxygenase (COX) inhibition assays
(§2) The assay was performed using an enzyme chemiluminescent kit (Cayman chemical, MI, USA) according to our previously reported method ([10]).

COX-2 = molecular target: T2, COX-2 (Ovis aries, UniProt P79208); experiment: biochemical; conditions: for COX-2 S.I. (COX-1 IC50/ COX-2 IC50): in-vitro COX-2 selectivity index; for IC50: ovine COX-1/COX-2 assay kit, mean of two determinations, deviation < 10% of the mean
T2 construct: purchased Cayman chemical, MI, USA
T2 sequence (P79208 17-603): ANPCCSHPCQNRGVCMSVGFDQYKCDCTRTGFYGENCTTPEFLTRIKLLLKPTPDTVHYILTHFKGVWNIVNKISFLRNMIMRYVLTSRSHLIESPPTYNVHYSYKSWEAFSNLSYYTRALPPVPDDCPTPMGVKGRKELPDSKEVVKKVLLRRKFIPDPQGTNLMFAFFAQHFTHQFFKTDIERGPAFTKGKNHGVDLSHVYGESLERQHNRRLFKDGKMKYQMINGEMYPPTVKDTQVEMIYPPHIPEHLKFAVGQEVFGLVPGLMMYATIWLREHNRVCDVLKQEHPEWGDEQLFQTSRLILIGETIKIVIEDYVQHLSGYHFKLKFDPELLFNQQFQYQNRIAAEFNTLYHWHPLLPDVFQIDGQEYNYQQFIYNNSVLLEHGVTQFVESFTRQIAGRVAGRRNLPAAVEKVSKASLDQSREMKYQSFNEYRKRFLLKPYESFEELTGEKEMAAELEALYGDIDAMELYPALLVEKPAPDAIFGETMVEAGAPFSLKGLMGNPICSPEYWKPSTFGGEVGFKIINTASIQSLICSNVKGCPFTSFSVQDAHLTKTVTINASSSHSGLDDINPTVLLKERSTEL
Method: as §1, §2

Row | SMILES | IC50 (COX-1) [µM] | COX-2 S.I. (COX-1 IC50/ COX-2 IC50) (COX-2) | IC50 (COX-2) [µM] | melting point [°C]
1 | Cc1ccc(C2C=C(c3ccc(S(C)(=O)=O)cc3)NC3=C2C(=O)CC(C)(C)C3)cc1 (stereo not shown) [Compound 9b] | 2.5 | 5.6 | 0.45 | 
2 | COc1ccc(C2C=C(c3ccc(S(C)(=O)=O)cc3)NC3=C2C(=O)CC(C)(C)C3)cc1 (stereo not shown) [Compound 9c, 7,8-Dihydro-7,7-dimethyl-4-(4-methoxyphenyl)-2-(4-(methylsulfonyl)phenyl) quinolin-5(1H, 4H, 6H)-one] | 16.6 |  | 0.17 | 250 to 253
3 | CC1(C)CC(=O)C2=C(C1)NC(c1ccc(S(C)(=O)=O)cc1)=CC2c1ccc(F)cc1 (stereo not shown) [Compound 9d] | 12.9 | 43 | 0.3 | 130 to 133
4 | CC1(C)CC(=O)C2=C(C1)NC(c1ccc(S(C)(=O)=O)cc1)=CC2c1ccc(Cl)cc1 (stereo not shown) [Compound 9e] | 18.7 | 3.8 | 4.9 | 232 to 236
5 | CC1(C)CC(=O)C2=C(C1)NC(c1ccc(S(C)(=O)=O)cc1)=CC2c1ccc(Br)cc1 (stereo not shown) [Compound 9f] | 20.9 | 2.1 | 10.1 | 237 to 240
6 | CC1(C)CC(=O)C2=C(C1)NC(c1ccc(S(C)(=O)=O)cc1)=CC2c1ccc([N+](=O)[O-])cc1 (stereo not shown) [Compound 9g] | 17.6 | 1.1 | 16.6 | 
7 | Cc1ccc(C2=CC(c3ccc(S(C)(=O)=O)cc3)C3=C(CC(C)(C)CC3=O)N2)cc1 (stereo not shown) [Compound 9i, 7,8-Dihydro-7,7-dimethyl-2-(4-methylphenyl)-4-(4-(methylsulfonyl)phenyl) quinolin-5(1H, 4H, 6H)-one] | 2.9 | 2.2 | 1.3 | 223 to 225
8 | COc1ccc(C2=CC(c3ccc(S(C)(=O)=O)cc3)C3=C(CC(C)(C)CC3=O)N2)cc1 (stereo not shown) [Compound 9j, 7,8-Dihydro-2-(4-methoxyphenyl)-7,7-dimethyl-4-(4-(methylsulfonyl)phenyl) quinolin-5(1H, 4H, 6H)-one] | 18.7 | 62.3 | 0.3 | 226 to 230
9 | CC1(C)CC(=O)C2=C(C1)NC(c1ccc([N+](=O)[O-])cc1)=CC2c1ccc(S(C)(=O)=O)cc1 (stereo not shown) [Compound 9n, 7,8-Dihydro-7,7-dimethyl-4-(4-(methylsulfonyl)phenyl)-2-(4-nitrophenyl) quinolin-5 (1H, 4H, 6H)-one] | 18.6 | 0.7 | 24.9 | 226 to 230

Results, then the molecule that gave them:

Row | IC50 (COX-1) [µM] | COX-2 S.I. (COX-1 IC50/ COX-2 IC50) (COX-2) | IC50 (COX-2) [µM] | melting point [°C] | SMILES
10 | 2.6 | 3.3 | 0.8 |  | CC1(C)CC(=O)C2=C(C1)NC(c1ccc(S(C)(=O)=O)cc1)=CC2c1ccccc1 (stereo not shown) [Compound 9a]
11 | 3.6 | 3.1 | 1.16 | 205 to 208 | CC1(C)CC(=O)C2=C(C1)NC(c1ccccc1)=CC2c1ccc(S(C)(=O)=O)cc1 (stereo not shown) [Compound 9h]
12 | 14.2 | 14.2 | 1 | 226 to 230 | CC1(C)CC(=O)C2=C(C1)NC(c1ccc(F)cc1)=CC2c1ccc(S(C)(=O)=O)cc1 (stereo not shown) [Compound 9k, 2-(4-Fluorophenyl)-7,8-dihydro-7,7-dimethyl-4-(4-(methylsulfonyl)phenyl) quinolin-5 (1H, 4H, 6H)-one]
13 | 21.6 | 3.1 | 6.9 | 226 to 230 | CC1(C)CC(=O)C2=C(C1)NC(c1ccc(Cl)cc1)=CC2c1ccc(S(C)(=O)=O)cc1 (stereo not shown) [Compound 9l, 2-(4-Cholorophenyl)-7,8-dihydro-7,7-dimethyl-4-(4-(methylsulfonyl)phenyl) quinolin-5(1H, 4H, 6H)-one]
14 | 17.9 | 1.3 | 13.2 | 226 to 230 | CC1(C)CC(=O)C2=C(C1)NC(c1ccc(Br)cc1)=CC2c1ccc(S(C)(=O)=O)cc1 (stereo not shown) [Compound 9m, 2-(4-Bromophenyl)-7,8-dihydro-7,7-dimethyl-4-(4-(methylsulfonyl)phenyl) quinolin-5 (1H, 4H, 6H)-one]
